Results taken from patent US20240148709A1, “METHODS OF TREATING EYE PAIN AND EYE DISORDERS” (Aisa Pharma, Inc., priority 2022, published 2024).
Values joined by “and” are separate entries in the source; they are usually repeats but may differ in a detail not shown here. Equal entries are not always repeated.

Tested on: participants with SSc-RP
Test: Scleroderma Health Assessment Questionnaire (SHAQ), Phase 2a study Part A
Assay type: in vivo, human
Experimental: Part A—double-blind, placebo-controlled, parallel-group, dose selection, will assess the safety and efficacy of two doses of cilnidipine (10 mg and 20 mg), alone and in combination with tadalafil. A total of 36 participants will be randomized to one of six prespecified treatment arms. Refer to FIG. 1 for treatment arms in Part A of the study. Dosing last for 12 (±2) days in which participants will self-administer daily doses of assigned treatment in the morning. Each participant will take one capsule and one tablet to blind the active therapy being received.
The standard, validated, patient reported outcome measures tool for SSc patients, the SHAQ, will be collected at the time points specified in the study schedules (FIG. 2 and FIGS. 3A and 3B) to assess the participant's quality of life. The SHAQ includes a Raynaud's VAS that will also be reported separately.
Results: Patients in the study were administered the Scleroderma Health Assessment Questionnaire (SHAQ) at the time of study entry and during clinic visits following the treatment period. The study is a two-part, parallel arm design, prospective, double-blind, randomized study conducted in Australia (Flinders Medical Center). 27 patients were randomized into the first phase of the study, following which a DSMB meeting was held, which reviewed data on the primary study endpoint and key Raynaud's secondary endpoints. Data on the SHAQ was not available for the DSMB to review. The mITT population, in which any data was available post treatment was 24 patients was the analysis population for this first part of the study. The second part (i.e., part B) of the study will randomize 36 patients in a double blind, randomized, prospective, placebo controlled, crossover study. In the first part (i.e., Part A) of the study for which data is presented, patients were randomized into 6 groups, cilnidipine at two doses (10 and 20 mg) alone and in combination with tadalafil 5 mg, tadalafil 5 mg alone, and placebo. […] The DSMB recommended that the study proceed into its double blind prospective cross overpowered second phase and compare cilnidipine 20 mg alone to placebo.

[1] = cilnidipine 20 mg arms (alone or + tadalafil 5 mg)

## COCCOC(=O)C1=C(C)NC(C)=C(C(=O)OC/C=C/c2ccccc2)C1c1cccc([N+](=O)[O-])c1 (stereo not shown) [Cilnidipine, cilnidipine]
[1]
  SHAQ Visual Analog Scale-Breathing Problems, Change from Baseline, Q3: 0.300
  SHAQ Visual Analog Scale-Breathing Problems, In Clinic Visit (Day 12), Max: 0.50
  SHAQ Visual Analog Scale-Breathing Problems, In Clinic Visit (Day 12), Mean (SD): 0.300 (0.2646)
  SHAQ Visual Analog Scale-Breathing Problems, In Clinic Visit (Day 12), Median: 0.400
  SHAQ Visual Analog Scale-Breathing Problems, In Clinic Visit (Day 12), Min: 0.00
  SHAQ Visual Analog Scale-Breathing Problems, In Clinic Visit (Day 12), Q1: 0.000
  SHAQ Visual Analog Scale-Breathing Problems, In Clinic Visit (Day 12), Q3: 0.500
  SHAQ Visual Analog Scale-Breathing Problems, Percent Change from Baseline, Max: 150.0%
  SHAQ Visual Analog Scale-Breathing Problems, Percent Change from Baseline, Mean (SD): −5.56 (135.742) %
  SHAQ Visual Analog Scale-Breathing Problems, Percent Change from Baseline, Median: −66.67%
  SHAQ Visual Analog Scale-Breathing Problems, Percent Change from Baseline, Min: −100.0%
  SHAQ Visual Analog Scale-Breathing Problems, Percent Change from Baseline, Q1: −100.00%
  SHAQ Visual Analog Scale-Breathing Problems, Percent Change from Baseline, Q3: 150.00%
  SHAQ Visual Analog Scale-Intestinal Problems, Change from Baseline, Max: 0.60
  SHAQ Visual Analog Scale-Intestinal Problems, Change from Baseline, Mean (SD): 0.300 (0.3000)
  SHAQ Visual Analog Scale-Intestinal Problems, Change from Baseline, Median: 0.300
  SHAQ Visual Analog Scale-Intestinal Problems, Change from Baseline, Min: 0.00
  SHAQ Visual Analog Scale-Intestinal Problems, Change from Baseline, Q1: 0.000
  SHAQ Visual Analog Scale-Intestinal Problems, Change from Baseline, Q3: 0.600
  SHAQ Visual Analog Scale-Intestinal Problems, In Clinic Visit (Day 12), Max: 2.10
  SHAQ Visual Analog Scale-Intestinal Problems, In Clinic Visit (Day 12), Mean (SD): 1.133 (1.0599)
  SHAQ Visual Analog Scale-Intestinal Problems, In Clinic Visit (Day 12), Median: 1.300
  SHAQ Visual Analog Scale-Intestinal Problems, In Clinic Visit (Day 12), Min: 0.00
  SHAQ Visual Analog Scale-Intestinal Problems, In Clinic Visit (Day 12), Q1: 0.000
  SHAQ Visual Analog Scale-Intestinal Problems, In Clinic Visit (Day 12), Q3: 2.100
  SHAQ Visual Analog Scale-Intestinal Problems, Percent Change from Baseline, Max: 40.0%
  SHAQ Visual Analog Scale-Intestinal Problems, Percent Change from Baseline, Mean (SD): 35.00 (7.071) %
  SHAQ Visual Analog Scale-Intestinal Problems, Percent Change from Baseline, Median: 35.00%
  SHAQ Visual Analog Scale-Intestinal Problems, Percent Change from Baseline, Min: 30.0%
  SHAQ Visual Analog Scale-Intestinal Problems, Percent Change from Baseline, Q1: 30.00%
  SHAQ Visual Analog Scale-Intestinal Problems, Percent Change from Baseline, Q3: 40.00%
  SHAQ Visual Analog Scale-Pain, Change from Baseline, Max: −0.50
  SHAQ Visual Analog Scale-Pain, Change from Baseline, Mean (SD): −1.100 (0.7937) and −1.1 (0.79)
  SHAQ Visual Analog Scale-Pain, Change from Baseline, Median: −0.800
  SHAQ Visual Analog Scale-Pain, Change from Baseline, Min: −2.00
  SHAQ Visual Analog Scale-Pain, Change from Baseline, Q1: −2.000
  SHAQ Visual Analog Scale-Pain, Change from Baseline, Q3: −0.500
  SHAQ Visual Analog Scale-Pain, In Clinic Visit (Day 12), Max: 2.10
  SHAQ Visual Analog Scale-Pain, In Clinic Visit (Day 12), Mean (SD): 1.067 (0.9074)
  SHAQ Visual Analog Scale-Pain, In Clinic Visit (Day 12), Median: 0.700
  SHAQ Visual Analog Scale-Pain, In Clinic Visit (Day 12), Min: 0.40
  SHAQ Visual Analog Scale-Pain, In Clinic Visit (Day 12), Q1: 0.400
  SHAQ Visual Analog Scale-Pain, In Clinic Visit (Day 12), Q3: 2.100
  SHAQ Visual Analog Scale-Pain, Percent Change from Baseline, Max: −48.8%
  SHAQ Visual Analog Scale-Pain, Percent Change from Baseline, Mean (SD): −52.56 (3.454) %
  SHAQ Visual Analog Scale-Pain, Percent Change from Baseline, Median: −53.33%
  SHAQ Visual Analog Scale-Pain, Percent Change from Baseline, Min: −55.6%
  SHAQ Visual Analog Scale-Pain, Percent Change from Baseline, Q1: −55.56%
  SHAQ Visual Analog Scale-Pain, Percent Change from Baseline, Q3: −48.78%
  SHAQ Visual Analog Scale-Raynaud's, Change from Baseline, Max: −0.30
  SHAQ Visual Analog Scale-Raynaud's, Change from Baseline, Median: −1.100
  SHAQ Visual Analog Scale-Raynaud's, Change from Baseline, Min: −2.40
  SHAQ Visual Analog Scale-Raynaud's, Change from Baseline, Q1: −2.400
  SHAQ Visual Analog Scale-Raynaud's, Change from Baseline, Q3: −0.300
  SHAQ Visual Analog Scale-Raynaud's, In Clinic Visit (Day 12), Max: 1.40
  SHAQ Visual Analog Scale-Raynaud's, In Clinic Visit (Day 12), Mean (SD): 1.033 (0.4041)
  SHAQ Visual Analog Scale-Raynaud's, In Clinic Visit (Day 12), Median: 1.100
  SHAQ Visual Analog Scale-Raynaud's, In Clinic Visit (Day 12), Min: 0.60
  SHAQ Visual Analog Scale-Raynaud's, In Clinic Visit (Day 12), Q1: 0.600
  SHAQ Visual Analog Scale-Raynaud's, In Clinic Visit (Day 12), Q3: 1.400
  SHAQ Visual Analog Scale-Raynaud's, Percent Change from Baseline, Max: −33.3%
  SHAQ Visual Analog Scale-Raynaud's, Percent Change from Baseline, Mean (SD): −48.63 (18.070) %
  SHAQ Visual Analog Scale-Raynaud's, Percent Change from Baseline, Median: −44.00%
  SHAQ Visual Analog Scale-Raynaud's, Percent Change from Baseline, Min: −68.6%
  SHAQ Visual Analog Scale-Raynaud's, Percent Change from Baseline, Q1: −68.57%
  SHAQ Visual Analog Scale-Raynaud's, Percent Change from Baseline, Q3: −33.33%
  SHAQ alternative disability index, Change from Baseline, Max: 0.00
  SHAQ alternative disability index, Change from Baseline, Mean (SD): −0.083 (0.0722)
  SHAQ alternative disability index, Change from Baseline, Median: −0.125
  SHAQ alternative disability index, Change from Baseline, Min: −0.13
  SHAQ alternative disability index, Change from Baseline, Q1: −0.125
  SHAQ alternative disability index, Change from Baseline, Q3: 0.000
  SHAQ alternative disability index, In Clinic Visit (Day 12), Max: 0.25
  SHAQ alternative disability index, In Clinic Visit (Day 12), Mean (SD): 0.125 (0.1250)
  SHAQ alternative disability index, In Clinic Visit (Day 12), Median: 0.125
  SHAQ alternative disability index, In Clinic Visit (Day 12), Min: 0.00
  SHAQ alternative disability index, In Clinic Visit (Day 12), Q1: 0.000
  SHAQ alternative disability index, In Clinic Visit (Day 12), Q3: 0.250
  SHAQ alternative disability index, Percent Change from Baseline, Max: −33.3%
  SHAQ alternative disability index, Percent Change from Baseline, Mean (SD): −41.67 (11.785) %
  SHAQ alternative disability index, Percent Change from Baseline, Median: −41.67%
  SHAQ alternative disability index, Percent Change from Baseline, Min: −50.0%
  SHAQ alternative disability index, Percent Change from Baseline, Q1: −50.00%
  SHAQ alternative disability index, Percent Change from Baseline, Q3: −33.33%
Pooled cilnidipine 10 mg or 20 mg (n=7)
  mean decrease in patient reported disease severity on the SHAQ: 60%
